Experimental data published in PubChem BioAssay (NCI).
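Cells were grown in 96-well plates and exposed to each compound for 48 hours at five concentrations; endpoints were interpolated linearly between bracketing concentrations, or set to the highest concentration if not reached. The concentration for 50% growth inhibition is given as GI50. Definition used: TGI = concentration required for complete inhibition of growth.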

What was measured:
Test in all cases: NCI anticancer screen, dose series, 48 h
NCI-H226 lung = system: NCI-H226 lung
MDA-MB-435 = system: MDA-MB-435
HCT-116 colon = system: HCT-116 colon
NCI-H23 lung = system: NCI-H23 lung
SK-OV-3 ovarian = system: SK-OV-3 ovarian
NCI-H460 lung = system: NCI-H460 lung

Structure (SMILES) | TGI (NCI-H226 lung) [µM] | TGI (MDA-MB-435) [µM] | TGI (HCT-116 colon) [µM] | TGI (NCI-H23 lung) [µM] | TGI (SK-OV-3 ovarian) [µM] | TGI (NCI-H460 lung) [µM] | GI50 (NCI-H226 lung) [µM] | GI50 (HCT-116 colon) [µM] | GI50 (SK-OV-3 ovarian) [µM] | GI50 (NCI-H460 lung) [µM]
COc1ccc2cc1Oc1ccc(cc1)C(Sc1ccccc1)CCOC(=O)CC2 (centres undefined) | > 100 | > 100 | > 100 | > 100 | > 100 | – | – | – | – | –
Cc1sc2nc(-c3cc([N+](=O)[O-])c(Cl)cc3Cl)c(/C=N/N=C(N)N)n2c1C | 75.2 | 16.6 | > 100 | 18.7 | – | 54.7 | – | – | – | –
CC(C)=CC(=O)O[C@H]1C(=O)O[C@@H]2C[C@H]3[C@H](C)C(=O)C(O[C@@H]4O[C@H](CO)[C@@H](O)[C@H](O)[C@H]4O)=C[C@]3(C)[C@H]3[C@@H](O)[C@H](O)[C@]4(C(=O)O)OC[C@]32[C@@H]14 | 85 | > 100 | > 100 | > 100 | > 100 | > 100 | 28.4 | 29.8 | > 100 | 32
COC(=O)c1ccccc1C#CC#Cc1ccccc1C(=O)OC | > 10 | > 10 | > 10 | > 10 | > 10 | > 10 | – | – | – | –
Cc1ccnc2[nH]c(-c3cccc(Cl)c3)cc(=O)c12 | > 100 | – | – | > 100 | > 100 | > 100 | – | – | – | –
O=C1C(NCCc2ccc(O)c(O)c2)=CC(=O)c2ncccc21 | 30.5 | 3.28 | 29 | > 78.3 | 38.5 | 29.4 | – | – | – | –
FC(F)(F)c1ccccc1N1CCN(c2nc(-c3cccs3)nc3ccc(Br)cc23)CC1 | > 100 | 63.3 | > 100 | > 100 | > 100 | > 100 | – | – | – | –
[Se]=P(c1ccccc1)(c1ccccc1)c1ccc(C(c2ccccc2)=P(c2ccccc2)(c2ccccc2)c2ccccc2)cc1 | 11.5 | 3.46 | 4.7 | 13.9 | 12.1 | 10.9 | – | – | – | –
O=C1C(F)=CC(COC(c2ccccc2)(c2ccccc2)c2ccccc2)OC1n1cc(F)c(=O)[nH]c1=O (centres undefined) | 5.51 | 3.18 | 10.9 | 3.91 | 14.4 | 7.68 | – | – | – | –
O=C1Sc2ccc(Br)cc2C(=O)Sc2ccccc21 | 44.5 | 21.7 | 26.9 | 36 | > 62.9 | 34 | – | – | – | –
C1CSCCCSCCSCCCSC1 | > 100 | > 100 | > 100 | > 100 | > 100 | > 100 | – | – | – | –
O=C(/C=C/c1cccc(Br)c1)c1cccs1 | 32.7 | 25.5 | 18 | 41.6 | 46.8 | 31.6 | – | – | – | –
C/C(=N/NC(=S)Nc1ccccc1Cl)c1cccc(/C(C)=N\NC(=S)Nc2ccccc2Cl)n1 | > 100 | > 100 | 49.4 | > 100 | > 100 | > 100 | – | – | – | –
Cc1c(C(=O)N2CCN(c3ccc([N+](=O)[O-])cc3)CC2)[n+](=O)c2cc(Cl)c(Cl)cc2n1[O-] | – | > 100 | 40.5 | 32 | 29.5 | 56.7 | – | – | – | –
CN1C(=S)C(c2ccccc2)Sc2ccccc21 (centres undefined) | > 100 | > 100 | > 100 | > 100 | > 100 | > 100 | – | – | – | –
NCCCn1c2ccccc2c2c3c(c4c(c21)CCC(O)CC4)C(=O)NC3=O (centres undefined) | 13.6 | 13.6 | 28.4 | 14.3 | – | 14 | – | – | – | –
COc1ccc(O[C@H](COCc2ccccc2)C[C@@H]2COC(C)(C)O2)cc1 | > 100 | > 100 | > 100 | > 100 | > 100 | > 100 | – | – | – | –
O=C(CN1CCN(Cc2ccccc2)CC1)N1CCCn2c1nc1ccccc1c2=O | > 100 | > 100 | > 100 | > 100 | > 100 | > 100 | – | – | – | –
CC(C)SC(C)(NC(=O)C1C(C)(C)CCC1(C)C)C(=O)O (centres undefined) | > 100 | > 100 | > 100 | > 100 | > 100 | > 100 | – | – | – | –
O=c1c(SSc2coc3cc(F)ccc3c2=O)coc2cc(F)ccc12 | > 100 | 36.3 | 19.3 | > 100 | – | 98.3 | – | – | – | –
CCCCc1c(C(=O)OC(C)(C)C)cc(C#Cc2cc(C(=O)OC(C)(C)C)c(CCCC)c(C(=O)OC(C)(C)C)c2)cc1C(=O)OC(C)(C)C | > 100 | > 100 | > 100 | > 100 | > 100 | > 100 | – | – | – | –
Cc1ccc(OCC2OC(n3cnc4nc(Cl)nc(Cl)c43)CC2Oc2ccc(C)cc2)cc1 (centres undefined) | 36.3 | 24.3 | 17.9 | 24.5 | > 89.5 | 20.2 | – | – | – | –
CC1(C)[C@@H](Cn2cnc3c(N)ncnc32)CC[C@@]1(C)CO | > 100 | > 100 | > 100 | > 100 | > 100 | > 100 | – | – | – | –
O=C(Nc1cccc(C(F)(F)F)c1)O/N=C(/Cl)CCl | – | – | > 100 | > 100 | > 100 | > 100 | – | – | – | –
CNc1ccc(-c2nc3cc(C)ccc3o2)cc1 | > 100 | > 100 | > 100 | > 100 | 61 | > 100 | – | – | – | –
Clc1ccc(Cc2nc3ccc(CCN4CCN(c5ccccc5)CC4)cc3[nH]2)cc1 | 51.3 | 26.6 | 24.6 | 32.5 | 38.4 | 27.8 | – | – | – | –
CN(C)c1ccc(/C=C2\N=C(NN)NC2=O)cc1 | > 100 | > 100 | > 100 | > 100 | > 100 | > 100 | – | – | – | –
O=C1NC(N/N=C\C(O)C(O)C(O)CO)=N/C1=C/c1ccc(Cl)cc1 (centres undefined) | > 100 | > 100 | > 100 | > 100 | > 100 | > 100 | – | – | – | –
N#Cc1c(SCc2ccccc2)nc(-c2ccccc2)[nH]c1=S | 70.3 | 61.3 | 51.8 | 47.7 | 60.1 | 51.4 | – | – | – | –
COc1ccc2[nH]c(Cl)c(/C=C3/C(=O)Nc4cc(C)c(OC)cc43)c2c1 | – | 3.51 | 15.7 | 19 | 9.4 | 12.9 | – | – | – | –
